{"source": "paper doi:10.1101/2023.11.24.568596v1", "about": "(biorxiv, 2023)", "conditions_in_all_cases": "binder", "key": {"PAK4": {"target": "PAK4 (Homo sapiens, UniProt O96013)", "sequence (O96013 whole entry)": "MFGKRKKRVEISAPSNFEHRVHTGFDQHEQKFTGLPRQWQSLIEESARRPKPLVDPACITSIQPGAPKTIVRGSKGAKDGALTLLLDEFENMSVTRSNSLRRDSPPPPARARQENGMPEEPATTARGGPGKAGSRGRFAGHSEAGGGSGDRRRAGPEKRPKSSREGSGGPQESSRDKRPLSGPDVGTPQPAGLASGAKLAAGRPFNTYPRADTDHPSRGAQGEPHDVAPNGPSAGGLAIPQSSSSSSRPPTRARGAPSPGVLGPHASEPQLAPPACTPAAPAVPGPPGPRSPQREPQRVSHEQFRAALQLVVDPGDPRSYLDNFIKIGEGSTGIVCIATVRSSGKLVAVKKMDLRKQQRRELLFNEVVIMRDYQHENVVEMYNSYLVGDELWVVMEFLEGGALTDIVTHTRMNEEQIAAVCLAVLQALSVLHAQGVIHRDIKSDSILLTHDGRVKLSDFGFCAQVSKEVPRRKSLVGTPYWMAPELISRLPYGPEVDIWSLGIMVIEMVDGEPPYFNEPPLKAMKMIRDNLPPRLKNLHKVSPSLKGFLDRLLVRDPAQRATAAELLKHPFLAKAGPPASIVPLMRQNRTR"}, "EphA7": {"target": "EphA7 (Homo sapiens, UniProt Q15375)", "sequence (Q15375 whole entry)": "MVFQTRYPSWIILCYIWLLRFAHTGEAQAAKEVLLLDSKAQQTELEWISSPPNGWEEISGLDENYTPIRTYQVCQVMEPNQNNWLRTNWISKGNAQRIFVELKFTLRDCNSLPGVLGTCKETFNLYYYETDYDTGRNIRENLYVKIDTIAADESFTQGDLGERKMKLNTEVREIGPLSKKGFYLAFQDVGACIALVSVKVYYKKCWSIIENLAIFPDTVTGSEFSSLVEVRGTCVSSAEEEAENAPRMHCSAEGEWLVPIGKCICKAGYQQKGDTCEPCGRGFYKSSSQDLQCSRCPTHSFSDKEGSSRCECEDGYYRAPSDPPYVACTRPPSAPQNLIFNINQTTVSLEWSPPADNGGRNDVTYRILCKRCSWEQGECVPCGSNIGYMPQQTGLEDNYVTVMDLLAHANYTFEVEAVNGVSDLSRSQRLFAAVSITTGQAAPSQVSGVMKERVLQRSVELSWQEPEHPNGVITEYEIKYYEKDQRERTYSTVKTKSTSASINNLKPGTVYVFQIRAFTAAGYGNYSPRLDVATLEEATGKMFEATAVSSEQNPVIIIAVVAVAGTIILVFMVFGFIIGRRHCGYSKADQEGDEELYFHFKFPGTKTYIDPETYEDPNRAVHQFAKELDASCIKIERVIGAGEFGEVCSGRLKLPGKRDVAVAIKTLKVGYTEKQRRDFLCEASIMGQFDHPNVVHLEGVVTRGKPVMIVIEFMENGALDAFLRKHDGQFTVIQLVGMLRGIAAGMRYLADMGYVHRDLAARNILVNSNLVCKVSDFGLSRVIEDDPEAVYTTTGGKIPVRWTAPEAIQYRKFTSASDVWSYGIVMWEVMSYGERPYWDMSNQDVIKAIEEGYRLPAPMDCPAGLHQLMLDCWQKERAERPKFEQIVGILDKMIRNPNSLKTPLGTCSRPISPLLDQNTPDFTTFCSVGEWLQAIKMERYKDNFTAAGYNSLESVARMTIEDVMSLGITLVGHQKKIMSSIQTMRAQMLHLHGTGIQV"}, "DCAMKL1": {"target": "T1, DCAMKL1 (Homo sapiens, UniProt O15075)", "T1 sequence (O15075 1-740)": "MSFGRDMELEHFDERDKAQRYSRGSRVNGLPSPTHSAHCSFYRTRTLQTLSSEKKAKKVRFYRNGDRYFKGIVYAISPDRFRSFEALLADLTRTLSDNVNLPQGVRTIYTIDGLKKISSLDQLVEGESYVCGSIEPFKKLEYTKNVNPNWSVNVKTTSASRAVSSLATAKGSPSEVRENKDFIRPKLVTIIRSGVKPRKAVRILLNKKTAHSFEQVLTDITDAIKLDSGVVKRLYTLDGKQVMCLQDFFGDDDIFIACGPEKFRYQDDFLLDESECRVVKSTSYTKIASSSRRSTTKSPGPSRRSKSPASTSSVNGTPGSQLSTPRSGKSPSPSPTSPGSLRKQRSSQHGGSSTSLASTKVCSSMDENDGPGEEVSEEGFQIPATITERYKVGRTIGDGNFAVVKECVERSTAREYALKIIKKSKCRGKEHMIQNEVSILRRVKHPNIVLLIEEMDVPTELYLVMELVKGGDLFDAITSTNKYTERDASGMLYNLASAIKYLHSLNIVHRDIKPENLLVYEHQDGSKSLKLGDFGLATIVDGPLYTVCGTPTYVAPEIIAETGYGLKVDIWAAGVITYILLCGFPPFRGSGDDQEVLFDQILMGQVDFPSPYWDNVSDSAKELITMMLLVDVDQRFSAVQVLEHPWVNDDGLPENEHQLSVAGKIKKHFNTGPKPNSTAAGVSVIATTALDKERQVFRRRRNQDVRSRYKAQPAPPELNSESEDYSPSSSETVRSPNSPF"}, "AKT3": {"target": "AKT3 (Homo sapiens, UniProt Q9Y243)", "sequence (Q9Y243 whole entry)": "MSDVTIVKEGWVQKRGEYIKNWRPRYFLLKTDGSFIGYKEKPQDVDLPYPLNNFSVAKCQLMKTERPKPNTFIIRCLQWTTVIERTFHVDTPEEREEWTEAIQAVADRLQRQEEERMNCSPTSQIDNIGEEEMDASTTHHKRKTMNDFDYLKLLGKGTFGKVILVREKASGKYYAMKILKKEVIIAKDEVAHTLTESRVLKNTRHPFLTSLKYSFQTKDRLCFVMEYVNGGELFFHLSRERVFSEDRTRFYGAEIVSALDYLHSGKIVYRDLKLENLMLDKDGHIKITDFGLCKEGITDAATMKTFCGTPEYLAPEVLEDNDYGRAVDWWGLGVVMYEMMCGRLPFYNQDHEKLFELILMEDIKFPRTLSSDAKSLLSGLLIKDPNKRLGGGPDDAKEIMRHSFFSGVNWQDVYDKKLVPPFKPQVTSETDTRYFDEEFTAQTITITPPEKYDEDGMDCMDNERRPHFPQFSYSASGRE"}, "PIM3": {"target": "PIM3 (Homo sapiens, UniProt Q86V86)"}, "MSSK1": {"target": "MSSK1 (Homo sapiens, UniProt Q9UPE1)", "sequence (Q9UPE1 whole entry)": "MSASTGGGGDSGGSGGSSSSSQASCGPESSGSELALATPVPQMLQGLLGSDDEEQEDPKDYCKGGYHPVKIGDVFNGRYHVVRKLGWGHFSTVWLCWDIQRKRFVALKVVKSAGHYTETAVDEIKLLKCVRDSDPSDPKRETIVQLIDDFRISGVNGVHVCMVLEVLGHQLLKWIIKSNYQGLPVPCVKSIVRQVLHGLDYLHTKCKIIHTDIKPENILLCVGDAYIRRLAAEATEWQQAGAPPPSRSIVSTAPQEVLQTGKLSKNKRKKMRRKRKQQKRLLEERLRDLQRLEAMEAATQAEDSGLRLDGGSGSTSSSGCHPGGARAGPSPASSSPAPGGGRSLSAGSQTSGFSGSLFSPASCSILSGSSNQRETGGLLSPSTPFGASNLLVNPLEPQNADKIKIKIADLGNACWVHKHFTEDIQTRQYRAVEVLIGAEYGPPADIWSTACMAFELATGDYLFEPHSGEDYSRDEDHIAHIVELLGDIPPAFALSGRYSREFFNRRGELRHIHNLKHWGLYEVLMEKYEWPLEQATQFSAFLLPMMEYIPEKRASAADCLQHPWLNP"}, "FECH": {"target": "T2, FECH (Homo sapiens, UniProt P22830)", "T2 sequence (P22830 1-423)": "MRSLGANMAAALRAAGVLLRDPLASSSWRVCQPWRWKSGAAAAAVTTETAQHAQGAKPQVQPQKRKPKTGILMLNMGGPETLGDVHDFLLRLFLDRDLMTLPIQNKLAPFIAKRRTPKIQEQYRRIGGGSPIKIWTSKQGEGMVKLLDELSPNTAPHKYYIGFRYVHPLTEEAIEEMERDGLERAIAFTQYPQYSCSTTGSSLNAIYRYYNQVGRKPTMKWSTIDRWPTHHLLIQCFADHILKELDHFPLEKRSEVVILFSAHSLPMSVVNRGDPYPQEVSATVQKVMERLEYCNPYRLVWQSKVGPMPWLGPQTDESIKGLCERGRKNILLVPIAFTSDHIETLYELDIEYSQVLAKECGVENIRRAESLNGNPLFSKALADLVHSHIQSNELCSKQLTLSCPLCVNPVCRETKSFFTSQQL"}, "CaMKK2": {"target": "CaMKK2 (Homo sapiens, UniProt Q96RR4)", "sequence (Q96RR4 whole entry)": "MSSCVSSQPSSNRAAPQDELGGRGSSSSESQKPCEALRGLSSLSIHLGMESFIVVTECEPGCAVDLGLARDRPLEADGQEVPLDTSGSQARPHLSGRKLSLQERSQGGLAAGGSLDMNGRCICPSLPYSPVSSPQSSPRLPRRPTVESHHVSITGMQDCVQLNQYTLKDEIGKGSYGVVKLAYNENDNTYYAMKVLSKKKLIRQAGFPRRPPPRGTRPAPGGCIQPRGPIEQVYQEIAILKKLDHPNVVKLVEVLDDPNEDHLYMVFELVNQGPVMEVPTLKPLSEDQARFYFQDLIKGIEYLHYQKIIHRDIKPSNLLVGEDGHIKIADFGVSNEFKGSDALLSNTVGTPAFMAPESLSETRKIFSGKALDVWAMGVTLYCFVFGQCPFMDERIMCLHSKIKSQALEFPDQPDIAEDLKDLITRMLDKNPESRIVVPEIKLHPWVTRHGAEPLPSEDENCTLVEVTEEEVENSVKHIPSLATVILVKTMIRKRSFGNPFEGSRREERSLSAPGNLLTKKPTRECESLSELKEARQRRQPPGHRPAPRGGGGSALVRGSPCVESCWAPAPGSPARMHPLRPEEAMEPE"}, "MRCKa": {"target": "MRCKa (Homo sapiens, UniProt Q5VT25)"}, "CK1d": {"target": "CK1d (Homo sapiens, UniProt P48730)", "sequence (P48730 whole entry)": "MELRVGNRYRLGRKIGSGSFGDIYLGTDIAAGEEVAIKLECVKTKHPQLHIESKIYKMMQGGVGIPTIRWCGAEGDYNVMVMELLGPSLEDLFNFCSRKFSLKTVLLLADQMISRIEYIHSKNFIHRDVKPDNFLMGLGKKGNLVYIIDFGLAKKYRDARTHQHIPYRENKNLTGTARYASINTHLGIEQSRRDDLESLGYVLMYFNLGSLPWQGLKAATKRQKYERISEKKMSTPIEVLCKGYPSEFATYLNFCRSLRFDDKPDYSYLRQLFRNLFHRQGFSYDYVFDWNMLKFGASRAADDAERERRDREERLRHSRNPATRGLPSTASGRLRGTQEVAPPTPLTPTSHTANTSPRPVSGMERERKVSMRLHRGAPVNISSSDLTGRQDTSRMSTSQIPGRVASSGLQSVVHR"}}, "data": [{"compound": "Cc1cccc(-c2ccc(-c3cc4cnc(Nc5ccc(F)c(CO)c5)nc4n(CCCCN)c3=O)c(Cl)c2)n1", "note": "[compound 33, 8-(4-Aminobutyl)-6-(2-chloro-4-(6-methylpyridin-2-yl)phenyl)-2-((4-fluoro-3-(hydroxymethyl)phenyl)amino)pyrido[2,3-d]pyrimidin-7(8H)-one]", "values": [{"measurement": "dTm 33", "setting": "PAK4", "result": 8.2, "unit": "°C"}, {"measurement": "dTm 33", "setting": "EphA7", "result": 5.3, "unit": "°C"}, {"measurement": "dTm 33", "setting": "DCAMKL1", "result": 1.2, "unit": "°C"}, {"measurement": "dTm 33", "setting": "AKT3", "result": 4.6, "unit": "°C"}, {"measurement": "dTm 33", "setting": "PIM3", "result": 4.6, "unit": "°C"}, {"measurement": "dTm 33", "setting": "MSSK1", "result": -0.4, "unit": "°C"}, {"measurement": "dTm 33", "setting": "FECH", "result": -2.9, "unit": "°C"}, {"measurement": "dTm 33", "setting": "CaMKK2", "result": 4.3, "unit": "°C"}, {"measurement": "dTm 33", "setting": "MRCKa", "result": 1.9, "unit": "°C"}, {"measurement": "dTm 33", "setting": "CK1d", "result": 2.2, "unit": "°C"}]}, {"compound": "COc1ccc(O)c(Nc2ncc3cc(-c4ccc(-c5cccc(C)n5)cc4Cl)c(=O)n(CCCCN)c3n2)c1", "note": "[compound 34, 8-(4-Aminobutyl)-6-(2-chloro-4-(6-methylpyridin-2-yl)phenyl)-2-((2-hydroxy-5-methoxy-phenyl)amino)pyrido[2,3-d]pyrimidin-7(8H)-one]", "values": [{"measurement": "dTm 34", "setting": "PAK4", "result": 3.0, "unit": "°C"}, {"measurement": "dTm 34", "setting": "EphA7", "result": 3.4, "unit": "°C"}, {"measurement": "dTm 34", "setting": "DCAMKL1", "result": -0.3, "unit": "°C"}, {"measurement": "dTm 34", "setting": "AKT3", "result": 1.3, "unit": "°C"}, {"measurement": "dTm 34", "setting": "PIM3", "result": 2.4, "unit": "°C"}, {"measurement": "dTm 34", "setting": "MSSK1", "result": 0.4, "unit": "°C"}, {"measurement": "dTm 34", "setting": "FECH", "result": 3.2, "unit": "°C"}, {"measurement": "dTm 34", "setting": "CaMKK2", "result": 4.3, "unit": "°C"}, {"measurement": "dTm 34", "setting": "MRCKa", "result": 0.8, "unit": "°C"}, {"measurement": "dTm 34", "setting": "CK1d", "result": 1.3, "unit": "°C"}]}, {"compound": "COc1cc(N2CCOCC2)ccc1Nc1ncc2cc(-c3ccc(-c4cccc(C)n4)cc3Cl)c(=O)n(CCCCN)c2n1", "note": "[compound 35, 8-(4-Aminobutyl)-6-(2-chloro-4-(6-methylpyridin-2-yl)phenyl)-2-((2-methoxy-4-morpholino-phenyl)amino)pyrido[2,3-d]pyrimidin-7(8H)-one]", "values": [{"measurement": "dTm 35", "setting": "PAK4", "result": 4.1, "unit": "°C"}, {"measurement": "dTm 35", "setting": "EphA7", "result": 5.8, "unit": "°C"}, {"measurement": "dTm 35", "setting": "DCAMKL1", "result": 2.0, "unit": "°C"}, {"measurement": "dTm 35", "setting": "AKT3", "result": 1.0, "unit": "°C"}, {"measurement": "dTm 35", "setting": "PIM3", "result": -2.4, "unit": "°C"}, {"measurement": "dTm 35", "setting": "MSSK1", "result": -0.2, "unit": "°C"}, {"measurement": "dTm 35", "setting": "FECH", "result": 7.0, "unit": "°C"}, {"measurement": "dTm 35", "setting": "CaMKK2", "result": 6.9, "unit": "°C"}, {"measurement": "dTm 35", "setting": "MRCKa", "result": -2.1, "unit": "°C"}, {"measurement": "dTm 35", "setting": "CK1d", "result": 1.8, "unit": "°C"}]}, {"compound": "COc1cc(N2CCN(C)CC2)ccc1Nc1ncc2cc(-c3ccc(-c4cccc(C)n4)cc3Cl)c(=O)n(CCCCN)c2n1", "note": "[compound 36, 8-(4-Aminobutyl)-6-(2-chloro-4-(6-methylpyridin-2-yl)phenyl)-2-((2-methoxy-4-(4-methylpiperazin-1-yl)phenyl)amino)pyrido[2,3-d]pyrimidin-7(8H)-one]", "values": [{"measurement": "dTm 36", "setting": "PAK4", "result": 3.9, "unit": "°C"}, {"measurement": "dTm 36", "setting": "EphA7", "result": 5.0, "unit": "°C"}, {"measurement": "dTm 36", "setting": "DCAMKL1", "result": 1.3, "unit": "°C"}, {"measurement": "dTm 36", "setting": "AKT3", "result": 1.0, "unit": "°C"}, {"measurement": "dTm 36", "setting": "PIM3", "result": -2.1, "unit": "°C"}, {"measurement": "dTm 36", "setting": "MSSK1", "result": 0.0, "unit": "°C"}, {"measurement": "dTm 36", "setting": "FECH", "result": 3.0, "unit": "°C"}, {"measurement": "dTm 36", "setting": "CaMKK2", "result": 5.8, "unit": "°C"}, {"measurement": "dTm 36", "setting": "MRCKa", "result": -0.9, "unit": "°C"}, {"measurement": "dTm 36", "setting": "CK1d", "result": 1.1, "unit": "°C"}]}]}
